Source: BindingDB's records for doi:10.1016/j.bmcl.2005.05.116 (Merck Frosst Canada, 2005)

Columns and labels:
Assay in all cases: Caspase Inhibition Assay
Caspase-8 = Caspase-8 (Homo sapiens, UniProt Q14790)
Method: (§1) The substrate peptides terminating in AMC are processed by caspases with or without inhibitors, and the accumulation of AMC was assessed with a Cytofluor fluorescent plate reader at excitation and emission wavelengths of 380 and 460 nm. Compounds were tested, and full IC50 curves were run for all compounds expressing measurable inhibitory activity.

Caspase-3 = target: T1, Caspase-3 (Homo sapiens, UniProt P42574)
T1 sequence (P42574 whole entry): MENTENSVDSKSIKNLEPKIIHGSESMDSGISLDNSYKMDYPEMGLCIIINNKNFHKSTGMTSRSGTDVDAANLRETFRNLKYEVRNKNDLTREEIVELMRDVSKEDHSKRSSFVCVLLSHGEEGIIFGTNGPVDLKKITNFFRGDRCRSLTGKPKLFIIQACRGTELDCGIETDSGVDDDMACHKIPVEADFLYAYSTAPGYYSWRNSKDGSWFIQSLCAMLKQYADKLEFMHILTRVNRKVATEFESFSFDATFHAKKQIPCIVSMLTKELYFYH
Method: as §1

Caspase-7 = target: T2, Caspase-7 (Homo sapiens, UniProt P55210)
T2 sequence (P55210 whole entry): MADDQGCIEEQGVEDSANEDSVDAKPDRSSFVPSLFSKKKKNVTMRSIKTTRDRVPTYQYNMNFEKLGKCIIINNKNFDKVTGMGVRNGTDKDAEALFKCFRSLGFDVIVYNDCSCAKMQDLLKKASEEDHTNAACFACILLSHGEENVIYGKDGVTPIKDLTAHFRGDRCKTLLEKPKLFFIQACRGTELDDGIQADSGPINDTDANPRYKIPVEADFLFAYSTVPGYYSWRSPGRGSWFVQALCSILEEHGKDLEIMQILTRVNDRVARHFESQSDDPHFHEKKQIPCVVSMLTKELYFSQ
Method: as §1

Caspase-1 = target: T3, Caspase-1 (Homo sapiens, UniProt P29466)
T3 sequence (P29466 whole entry): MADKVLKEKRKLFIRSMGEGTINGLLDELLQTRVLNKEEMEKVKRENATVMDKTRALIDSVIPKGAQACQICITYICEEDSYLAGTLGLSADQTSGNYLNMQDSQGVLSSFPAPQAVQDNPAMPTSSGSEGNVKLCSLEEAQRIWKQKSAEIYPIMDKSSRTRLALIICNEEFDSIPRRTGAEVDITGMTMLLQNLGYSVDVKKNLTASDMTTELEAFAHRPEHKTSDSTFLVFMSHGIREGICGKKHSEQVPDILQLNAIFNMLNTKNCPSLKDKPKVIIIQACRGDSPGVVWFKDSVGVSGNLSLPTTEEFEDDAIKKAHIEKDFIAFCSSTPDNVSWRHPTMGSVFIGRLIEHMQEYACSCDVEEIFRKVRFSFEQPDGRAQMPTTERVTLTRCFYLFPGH
Method: as §1

Chain of Caspase-8 (Q14790 217-374 limits assumed): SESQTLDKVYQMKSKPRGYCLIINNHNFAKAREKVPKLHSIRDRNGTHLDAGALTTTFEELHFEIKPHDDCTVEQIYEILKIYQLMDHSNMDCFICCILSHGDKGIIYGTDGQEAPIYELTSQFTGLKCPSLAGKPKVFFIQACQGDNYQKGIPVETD
Chain of Caspase-8 (Q14790 385-479 limits assumed): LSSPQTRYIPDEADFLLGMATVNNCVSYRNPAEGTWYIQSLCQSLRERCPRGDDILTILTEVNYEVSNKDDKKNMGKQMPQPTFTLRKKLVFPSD

SMILES	IC50 (Caspase-8)	IC50 (Caspase-3)	IC50 (Caspase-7)	IC50 (Caspase-1)	IC50 (Caspase-3; pH 7, 37 °C)
COc1ccc(OC)c(C(O)C(=O)N[C@H](C(=O)N[C@@H](CC(=O)O)C(=O)CSCc2ccccc2)C(C)C)c1 (stereo partly drawn) [(3S)-5-(benzylsulfanyl)-3-[(2S)-2-[2-(2,5-dimethoxyphenyl)-2-hydroxyacetamido]-3-methylbutanamido]-4-oxopentanoic acid]	0.975 µM	0.029 µM	0.545 µM	4.49 µM	–
COc1ccc(C(C)=O)cc1C(O)C(=O)N[C@H](C(=O)N[C@@H](CC(=O)O)C(=O)CSCc1ccccc1)C(C)C (stereo partly drawn) [(3S)-5-(benzylsulfanyl)-3-[(2S)-2-[2-(5-acetyl-2-methoxyphenyl)-2-hydroxyacetamido]-3-methylbutanamido]-4-oxopentanoic acid]	0.635 µM	0.016 µM	0.29 µM	4.85 µM	–
COc1ccc(Br)cc1C(O)C(=O)N[C@H](C(=O)N[C@@H](CC(=O)O)C(=O)CSCc1ccccc1)C(C)C (stereo partly drawn) [(3S)-5-(benzylsulfanyl)-3-[(2S)-2-[2-(5-bromo-2-methoxyphenyl)-2-hydroxyacetamido]-3-methylbutanamido]-4-oxopentanoic acid]	0.104 µM	0.005 µM	0.091 µM	1.54 µM	–
COc1ccc(I)cc1C(O)C(=O)N[C@H](C(=O)N[C@@H](CC(=O)O)C(=O)CSCc1ccccc1)C(C)C (stereo partly drawn) [(3S)-5-(benzylsulfanyl)-3-[(2S)-2-[2-hydroxy-2-(5-iodo-2-methoxyphenyl)acetamido]-3-methylbutanamido]-4-oxopentanoic acid]	0.098 µM	0.016 µM	0.135 µM	0.675 µM	–
COc1ccc(Br)cc1[C@@H](C(=O)N[C@H](C(=O)N[C@@H](CC(=O)O)C(=O)CSCc1ccccc1)C(C)C)C(C)C [(3S)-5-(benzylsulfanyl)-3-[(2S)-2-[(2S)-2-(5-bromo-2-methoxyphenyl)-3-methylbutanamido]-3-methylbutanamido]-4-oxopentanoic acid]	1.32 µM	–	> 10 µM	> 10 µM	9.44 µM
COc1ccc(Br)cc1[C@H](Cc1ccccc1)C(=O)N[C@H](C(=O)N[C@@H](CC(=O)O)C(=O)CSCc1ccccc1)C(C)C [(3S)-5-(benzylsulfanyl)-3-[(2S)-2-[(2S)-2-(5-bromo-2-methoxyphenyl)-3-phenylpropanamido]-3-methylbutanamido]-4-oxopentanoic acid]	5.83 µM	–	4.2 µM	5.81 µM	0.181 µM
C=CC[C@H](C(=O)N[C@H](C(=O)N[C@@H](CC(=O)O)C(=O)CSCc1ccccc1)C(C)C)c1cc(Br)ccc1OC [(3S)-5-(benzylsulfanyl)-3-[(2S)-2-[(2S)-2-(5-bromo-2-methoxyphenyl)pent-4-enamido]-3-methylbutanamido]-4-oxopentanoic acid]	1.62 µM	–	2.21 µM	6.51 µM	0.08 µM
C#CC[C@H](C(=O)N[C@H](C(=O)N[C@@H](CC(=O)O)C(=O)CSCc1ccccc1)C(C)C)c1cc(Br)ccc1OC [(3S)-5-(benzylsulfanyl)-3-[(2S)-2-[(2S)-2-(5-bromo-2-methoxyphenyl)pent-4-ynamido]-3-methylbutanamido]-4-oxopentanoic acid]	4.47 µM	–	3.62 µM	> 10 µM	0.341 µM
CCC[C@H](C(=O)N[C@H](C(=O)N[C@@H](CC(=O)O)C(=O)CSCc1ccccc1)C(C)C)c1cc(Br)ccc1OC [(3S)-5-(benzylsulfanyl)-3-[(2S)-2-[(2S)-2-(5-bromo-2-methoxyphenyl)pentanamido]-3-methylbutanamido]-4-oxopentanoic acid]	4.5 µM	–	5.3 µM	> 10 µM	0.274 µM
COc1ccc(Br)cc1[C@H](C)C(=O)N[C@H](C(=O)N[C@@H](CC(=O)O)C(=O)CSCc1ccccc1)C(C)C [(3S)-5-(benzylsulfanyl)-3-[(2S)-2-[(2S)-2-(5-bromo-2-methoxyphenyl)propanamido]-3-methylbutanamido]-4-oxopentanoic acid]	5.38 µM	–	3.69 µM	> 10 µM	0.176 µM
COc1ccc(-c2nc(C)no2)cc1C(O)C(=O)N[C@H](C(=O)N[C@@H](CC(=O)O)C(=O)CSCc1ccccc1)C(C)C (stereo partly drawn) [(3S)-5-(benzylsulfanyl)-3-[(2S)-2-{2-hydroxy-2-[2-methoxy-5-(3-methyl-1,2,4-oxadiazol-5-yl)phenyl]acetamido}-3-methylbutanamido]-4-oxopentanoic acid]	0.28 µM	0.012 µM	0.063 µM	2.46 µM	–
COc1ccc(Br)cc1C1(C(=O)N[C@H](C(=O)N[C@@H](CC(=O)O)C(=O)CSCc2ccccc2)C(C)C)CC1 [(3S)-5-(benzylsulfanyl)-3-[(2S)-2-{[1-(5-bromo-2-methoxyphenyl)cyclopropyl]formamido}-3-methylbutanamido]-4-oxopentanoic acid]	> 10 µM	–	> 10 µM	> 10 µM	0.323 µM
